Data reported in article PMC1810525, “Antagonism of the prostaglandin D2 receptor CRTH2 attenuates asthma pathology in mouse eosinophilic airway inflammation” (Respiratory Research, 2007).

How the values were obtained:
mCRTH2 = biological target: T1, mCRTH2 (Mus musculus, UniProt Q9Z2J6); assay: Inositol phosphate accumulation assay, mCRTH2-HEK cells (Schild analysis vs PGD2); format: cell-based; settings: PGD2 concentration-response, InsP
T1 construct: expressed in transfected cells
T1 sequence (Q9Z2J6 1-382): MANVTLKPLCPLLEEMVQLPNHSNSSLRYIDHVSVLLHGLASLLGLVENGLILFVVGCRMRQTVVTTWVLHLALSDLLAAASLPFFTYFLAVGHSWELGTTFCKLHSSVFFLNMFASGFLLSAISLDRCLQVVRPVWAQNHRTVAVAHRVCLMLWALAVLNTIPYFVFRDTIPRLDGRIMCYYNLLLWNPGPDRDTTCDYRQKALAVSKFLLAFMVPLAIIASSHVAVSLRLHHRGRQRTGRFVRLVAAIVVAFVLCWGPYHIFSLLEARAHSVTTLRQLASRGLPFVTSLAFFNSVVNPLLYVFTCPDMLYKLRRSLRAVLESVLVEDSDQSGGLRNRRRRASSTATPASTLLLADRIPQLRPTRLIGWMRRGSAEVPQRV
Source text: (§1) The coding sequence of mCRTH2 (genbank accession no. AF054507) was amplified by PCR from mouse hippocampus cDNA and inserted into the pcDNA3.1(+) expression vector (invitrogen). A HEK293 cell line, stably expressing mCRTH2 (hereafter referred to as mCRTH2-HEK cells) was generated under G418 (Gibco #11811) selection and used as described below in whole cell binding and functional inositol phosphate accumulation assays. The coding sequence of mTP (genbank accession no. D10849) was amplified by PCR from mouse spleen cDNA and inserted into pcDNA3.1(+). HEK293 cells were transiently transfected with mTP as described and assayed after 48 hr as outlined below.
(§2) mCRTH2-HEK or HEK cells transiently transfected with mTP were seeded at a density of 30.000 cells/well in poly-D-lysine coated 96-well tissue culture plates and labeled by overnight incubation in medium containing 5 μCi myo- [2-^3H]-inositol (TRK911, Amersham Biosciences). After washing, cells were stimulated with the respective ligands in the presence of 5 mM LiCl (HBSS, GIBCO cat. 14025–050, 45 min, 37°C) and the inositol phosphate fraction was quantified using a scintillation proximity assay (SPA) as described previously. To facilitate inositol phosphate generation by the Gi-selective CRTH2 receptor, mCRTH2-HEK cells were transiently transfected with a promiscuous Gα protein [29].
(§3) was performed using the Prism 3.0 software (GraphPad Software, San Diego) as described previously with the following exceptions: Binding data from competition binding assays were normalized to percent of specific binding of [^3H]PGD2 or [^3H]SQ29548 and the Ki was then determined using the Cheng-Prusoff equation Ki = IC50/(1+L/Kd), where L is the concentration of radioactive ligand and Kd is its dissociation constant. For Schild analysis, global fitting using the Gaddum/Schild competitive interaction model was applied after the functional concentration-response curves for the agonists PGD2 or U46619 in the absence or presence of various antagonist concentrations were normalized to percent of the maximal response obtained by agonist alone.

mTP = biological target: T2, mTP (Mus musculus, UniProt P30987); assay: Inositol phosphate accumulation assay, HEK cells transfected with mTP (Schild analysis vs U46619); format: cell-based
T2 construct: expressed in transfected cells; host or cells: HEK293 (transient, pcDNA3.1(+))
T2 sequence (P30987 1-341): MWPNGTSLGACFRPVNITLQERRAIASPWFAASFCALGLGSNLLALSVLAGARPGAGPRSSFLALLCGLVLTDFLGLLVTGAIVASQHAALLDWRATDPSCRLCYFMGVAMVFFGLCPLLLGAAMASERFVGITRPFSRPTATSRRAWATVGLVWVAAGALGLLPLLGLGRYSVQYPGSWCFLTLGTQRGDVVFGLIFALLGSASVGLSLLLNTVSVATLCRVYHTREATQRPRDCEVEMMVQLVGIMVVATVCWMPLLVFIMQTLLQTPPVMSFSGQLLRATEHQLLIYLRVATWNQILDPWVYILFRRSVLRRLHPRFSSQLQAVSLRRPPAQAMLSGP
Source text: as §1, §2, §3

[1] = tested on: OVA-challenged BALB/c mice; assay: Mouse model of allergic asthma (OVA), lung tissue eosinophils and mucus cells histology; format: in vivo; settings: 5 mg/kg orally twice daily days 14 and 15, OVA-challenged mice, 24 hr after last challenge; p < 0.05 vs vehicle
Protocol: Female BALB/c mice about 6 weeks of age (MoB A/S; Ry, Denmark) were kept in well-controlled animal housing facilities and fed ad libitum. The study was approved by the Regional Ethics Committee in Malmoe-Lund, Sweden. All groups of mice (n = 10 in each group) were immunized by intraperitoneal (i.p) injections of ovalbumin (OVA, 10 μg per injection; grade V, Sigma, St Louis, Mo) absorbed to alum adjuvant (Al(OH)3; Sigma) at day 0 as described previously. […] Control animals received saline challenge. Animals were sacrificed 24 hr after the last allergen challenge by pentobarbital i.p followed by bronchoalveolar lavage (BAL) and lung tissue sampling. In preliminary studies it was ascertained that daily allergen challenges for only a few days sufficed to produce a significant airway tissue eosinophilia as well as goblet cell hyperplasia. On days 14 and 15 mice were treated twice daily with TM30089 and ramatroban (BAY3405), 5 mg/kg orally. […] Drugs were administered 30 minutes before and 4 hr after each challenge. The dose of ramatroban was selected in accord with previous reports. Furthermore, ramatroban and TM30089 differ chemically merely by the move of one carbon atom from the carboxyl side chain in ramatroban to the sulfonamide nitrogen in TM30089 - thus they have the same molecular weight and other important structural features in common - so it is highly reasonable to assume they will have very similar PK properties. […] Eosinophils were detected by histochemical visualization of cyanide-resistant eosinophil peroxidase (EPO) activity. In brief, 5 μm cryo sections were incubated for 8 min at room temperature in PBS buffer (pH 7.4) supplemented with 3.3-diaminobenzidine tetrahydrochloride (60 mg/100 ml; Sigma), 30% H2O2 (0.3 ml/100 ml), and NaCN (120 mg/100 ml). Slides were then rinsed in tap water and mounted in […] medium (Merck, Darmstadt, Germany). […] Although the focus in this study was on tissue pathology BAL was also carried out (see below). Histology analyses were performed and quantified in a blinded manner. To compare histological data, the non-parametric Kruskal-Wallis test and followed by Connover's test was applied using Analyze ItTM (Analyse-it software Ltd., Leeds, UK). Data are expressed as mean ± SEM. A value of p < 0.05 was considered statistically significant.

Compound	Schild slope mCRTH2 (mCRTH2)	pA2 mCRTH2 (mCRTH2)	effect on signaling of mTP (mTP; InsP functional assay)	allergen challenge-induced mucus cell hyperplasia [1]	allergen challenge-induced peribronchial lung tissue eosinophilia [1]	Kb (mCRTH2; read-out: pA2 mCRTH2 (converted)) [nM]	Schild slope mTP (mTP; Schild analysis, U46619 concentration-response, InsP)	Kb (mTP; Schild analysis, U46619 concentration-response, InsP, read-out: pA2 mTP (converted)) [nM]
CN(C1CCc2c(c3ccccc3n2CC(=O)O)C1)S(=O)(=O)c1ccc(F)cc1 (centres unmarked) [TM30089]	1.45 ± 0.08	9.15 ± 0.11	does not interfere with signaling of mTP	significantly diminished	significantly diminished	–	–	–
O=C(O)CCn1c2c(c3ccccc31)C[C@H](NS(=O)(=O)c1ccc(F)cc1)CC2 [ramatroban, reference compound]	0.94 ± 0.05	–	–	significantly diminished	significantly diminished	8.32	1.35 ± 0.06	0.437
